Assay results from patent US11098060B2, “Macrocycle containing aminopyrazole and pyrimidine and pharmaceutical composition and use thereof” (CHIA TAI TIANQING PHARMACEUTICAL GROUP CO., LTD., priority 2017, dated 2021).

What was measured:
[1] = Pharmacokinetic assay in rats, oral; type: in vivo; settings: rat, male SD rats, 5 mg/kg single intragastric administration, plasma
Description: Male SD rats were available from Beijing Vital River Laboratory Animal Technology Co., Ltd. The rats were allocated with three rats per group, and orally administered the suspension of a sample to be tested (5 mg/kg, the suspension is a mixed solution of 10% EtOH, 40% PEG 400 and 50% H2O) by single intragastric administration, respectively. Before the experiment, the animals were fasted overnight, and the fasting time was from 10 hrs before administration to 4 hrs after administration. After administration, a blood sample was taken at 0.25 hr, 0.5 hr, 1 hr, 2 hrs, 4 hrs, 6 hrs, 8 hrs and 24 hrs, respectively. After the animals were narcotized with isoflurane using an anaesthesia machine for small animals, 0.3 mL of whole blood was taken from fundus venous plexus, and placed in a heparin anticoagulant tube. At 4° C., the sample was centrifuged at 4000 rpm for 5 min, and plasma was transferred to a centrifuge tube and preserved at −80° C. until the analysis was started. The sample in plasma was extracted by the protein precipitation method, and the extracted liquid was analyzed by LC/MS/MS.

[2] = biological target: TrkA^G595R (Kinase domain) kinase (Homo sapiens (Human), UniProt P04629, G595R); assay: Assay for inhibitory activity (IC50) against TrkA^G595R kinase (HTRF); type: biochemical; settings: kinase 0.2 nM, TK peptide 1 μM, 120 min at 23° C.
Sequence of TrkA^G595R (Kinase domain) kinase (P04629 510-781 G595R): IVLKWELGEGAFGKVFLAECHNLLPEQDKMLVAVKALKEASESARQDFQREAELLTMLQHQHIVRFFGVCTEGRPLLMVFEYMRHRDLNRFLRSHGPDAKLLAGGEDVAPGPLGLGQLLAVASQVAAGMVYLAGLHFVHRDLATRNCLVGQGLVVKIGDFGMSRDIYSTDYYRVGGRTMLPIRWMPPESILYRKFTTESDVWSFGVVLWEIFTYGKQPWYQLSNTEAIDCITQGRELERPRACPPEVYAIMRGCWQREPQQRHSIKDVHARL

TrkA^WT kinase = TrkA^WT kinase (Homo sapiens (Human), UniProt P04629); assay: Assay for inhibitory activity (IC50) against TrkA^WT (HTRF); type: biochemical; settings: TrkA 1 nM, ATP 40 μM, TK peptide 1 μM, 60 min at 23° C.
Sequence of TrkA^WT kinase (P04629 33-796): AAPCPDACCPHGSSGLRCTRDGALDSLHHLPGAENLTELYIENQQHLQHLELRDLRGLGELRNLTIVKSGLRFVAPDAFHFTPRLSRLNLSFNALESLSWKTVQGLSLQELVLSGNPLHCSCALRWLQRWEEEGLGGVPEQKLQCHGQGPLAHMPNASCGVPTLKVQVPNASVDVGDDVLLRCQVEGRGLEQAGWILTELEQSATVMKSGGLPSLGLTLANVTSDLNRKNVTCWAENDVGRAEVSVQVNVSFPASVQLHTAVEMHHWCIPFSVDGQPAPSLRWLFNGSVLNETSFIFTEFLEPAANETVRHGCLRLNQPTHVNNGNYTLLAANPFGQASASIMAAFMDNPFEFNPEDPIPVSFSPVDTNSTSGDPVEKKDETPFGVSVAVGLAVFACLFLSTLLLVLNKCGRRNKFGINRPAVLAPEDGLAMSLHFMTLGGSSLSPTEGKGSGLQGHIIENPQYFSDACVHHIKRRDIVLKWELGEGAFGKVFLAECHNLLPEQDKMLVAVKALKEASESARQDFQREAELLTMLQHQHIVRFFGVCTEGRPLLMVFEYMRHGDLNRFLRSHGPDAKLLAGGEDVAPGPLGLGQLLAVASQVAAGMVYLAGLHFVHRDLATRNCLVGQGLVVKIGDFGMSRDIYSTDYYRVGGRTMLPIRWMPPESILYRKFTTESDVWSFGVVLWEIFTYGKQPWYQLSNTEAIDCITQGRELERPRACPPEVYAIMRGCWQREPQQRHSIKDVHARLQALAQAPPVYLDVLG

## Nc1nn2ccc3nc2c1C(=O)NCCOc1ncc(F)cc1[C@H]1C[C@H](F)CN31 [Example 14, (1^3E,1^4E,2^2R,2^4S)-1^2-amino-2^4,3^5-difluoro-4-oxa-7-aza-1(5,3)-pyrazolo[1,5-a]pyrimidine-3(3,2)-pyridine-2 (1,2)-pyrrolidylcyclooctanephane-8-one]
[1]
  AUC(0-inf): 504 ng·h/mL
  Cmax: 140 ng/mL
  Tmax: 1 h
  half-life: 1.81 h
[2]
  IC50: 0.4 ± 0.05 nM
TrkA^WT kinase
  IC50: 0.68 ± 0.03 nM
